Structures are written as SMILES. pIC50: −log10 of the molar value. Bounds are passed on as bounds.

For one test, the system named is MKN-45 cells. Kind of test: Antitumor test, MKN-45 transplanted nude mouse. The note with it: MKN-45, dose 2 mg/kg, orally, 14 consecutive days. Format: in vivo, nude mouse (BALB/c nu/nu). As for the experimental part: (§1) Cancer cells were cultured in a culture medium containing 10% bovine fetal serum in an incubator at 37° C., 5% CO2. MKN-45 cells were treated with trypsin/EDTA and isolated. MKN-45 and MV-4-11 cells were washed with HBSS (HANK's Balanced Saline Solution). When MKN-45 cells were transplanted, they were adjusted with HBSS to a cell density of 1.2×10^8 cells/mL, and transplanted by subcutaneous injection of 0.05 mL of a mixed suspension (3×10^6 cells) of the cell suspension and the same amount of Matrigel into the abdomen of 6 or 7-week-old female nude mouse (BALB/c nu/nu, CLEA Japan, Inc.). When MV-4-11 cells were transplanted, they were adjusted with HESS to a cell density of 1.2×10^8 cells/mL, and transplanted by subcutaneous injection of 0.05 mL of a mixed suspension (3×10^6 cells) of the cell suspension and the same amount of Matrigel into the abdomen of 7-week-old female nude mouse (BALB/c nu/nu, CLEA Japan, Inc.). When the average tumor volume reached 100-250 mm^3, the mice were grouped, and various doses of test substance were orally administered for 14 consecutive days starting from the next day. The length of the major axis and the length of the minor axis of the tumor were measured over time and the tumor volume was calculated by tumor volume=major axis length×minor axis length×minor axis length×0.5. The ratio of an increase in the average tumor volume of the control group to an increase in the average tumor volume of the drug administration group was taken as the tumor growth rate (%) of the drug administration group. Table 5 showned MKN-45 tumor growth rate (%) and table 6 showned MV-4-11 tumor growth rate (%).

For a further test, the system named is MV-4-11 cells. Kind of test: Antitumor test, MV-4-11 transplanted nude mouse. Type of test: in vivo, nude mouse (BALB/c nu/nu). The note with it: MV-4-11, dose 2 mg/kg, orally, 14 consecutive days. As for the experimental part: as §1
Test [1] has as its system Human blood cell cancer cell line MV-4-11. Briefly: Human blood cell cancer cell line MV-4-11 growth inhibitory test. Type of test: cell-based. The note with it: MV4-11, 72 h, culture for 3 days; for inhibition at 1 µM: 1 μM test substance, read-out: inhibitory rate (%) at 1 μM.

Broadly, the pIC50 is the negative decadic logarithm of the IC50, by convention in mol/L. Turning to `Cc1ccc(C(=O)Nc2ccc(Oc3ccc4nc(NC(=O)C5CC5)cn4c3)c(F)c2)c(=O)n1-c1ccc(F)cc1.Cl` [Example 32, N-[4-({2-[(cyclopropylcarbonyl)amino]imidazo[1,2-a]pyridin-6-yl}oxy)-3-fluorophenyl]-1-(4-fluorophenyl)-6-methyl-2-oxo-1,2-dihydropyridine-3-carboxamide hydrochloride], the “tumor growth rate (%)” value in the test on MKN-45 cells is on record as 14%. Further, in the test with MV-4-11 cells, the “tumor growth rate (%)” value was below 0%. Also, in test [1], the inhibition at 1 µM is at least 90% and the negative-log IC50 (pIC50) is at least 6.00.

As to `Cc1ccc(C(=O)Nc2ccc(Oc3ccc4nc(NC(=O)C5CC5)cn4c3)cc2F)[n+]([O-])c1-c1ccc(F)cc1` [Example 84, N-[4-({2-[(cyclopropylcarbonyl)amino]imidazo[1,2-a]pyridin-6-yl}oxy)-2-fluorophenyl]-6-(4-fluorophenyl)-5-methylpyridine-2-carboxamide 1-oxide], in test [1], the inhibition at 1 µM was at least 90% and the negative logarithm of the IC50 (pIC50) was at least 6.00.

Regarding `Cc1ccc(C(=O)Nc2ccc(Oc3ccc4nc(NC(=O)C5CC5)cn4c3)c(F)c2)[n+]([O-])c1-c1cccc(F)c1` [Example 93, N-[4-({2-[(cyclopropylcarbonyl)amino]imidazo[1,2-a]pyridin-6-yl}oxy)-3-fluorophenyl]-6-(3-fluorophenyl)-5-methylpyridine-2-carboxamide 1-oxide], in test [1], the inhibition at 1 µM was at least 90% and the pIC50 is at least 6.00.

These data come from patent publication US8445509B2, “Fused heterocyclic derivatives and use thereof” (Takeda Pharmaceutical Company Limited, priority 2008, dated 2013).
